Laboratory results taken from PMC8523698, “Preclinical characterization of an intravenous coronavirus 3CL protease inhibitor for the potential treatment of COVID19” (Nature Communications, 2021).
Where “and” joins values, the source holds several entries; their conditions need not be identical. Equal entries are not always repeated. Where two headings read alike, the source gives them in different places.

Tests used:
[1] = molecular target: Human Caspase 2 (Homo sapiens, UniProt P42575); experiment: Mammalian protease panel; assay type: biochemical
[2] = molecular target: HKU9-CoV 3CL^pro (Bat coronavirus HKU9, UniProt P0C6W5); assay type: biochemical; conditions: for Initial Velocity: triplicate, listed as Compound F2
[3] = molecular target: CYP3A4/5 (Homo sapiens, UniProt P08684); experiment: Reversible CYP inhibition in human liver microsomes
[4] = Metabolic stability in pooled human liver microsomes (intrinsic clearance); conditions: both, pH 7.5
[5] = molecular target: OC43-CoV 3CL^pro (Human coronavirus OC43, UniProt P0C6X6); assay type: biochemical
[6] = Liver microsome binding by equilibrium dialysis; conditions: for fraction unbound at 6 h: human, human liver microsomes, fu
[7] = in vitro
[8] = system: VeroE6-EGFP cells
[9] = molecular target: Human Elastase (Homo sapiens, UniProt P08246); experiment: Mammalian protease panel; assay type: biochemical
Experimental: (§1) The respective protease in assay buffer (50 mM Tris with 100 mM sodium chloride and Brij 35 at pH = 8 except for cathepsin D pH = 3.5 and HIV pH = 5.5) was added to assay ready compound plates. The enzymatic reaction was initiated with the addition of indicated substrate in assay buffer. Initial rates were measured by following the fluorescence of the cleaved substrate (Ex/Em 355/460 […]) using a Spectramax (Molecular Devices) fluorescence plate reader in the kinetic format.
(§2) IC50 values were generated based on a four-parameter logistic fit model using ActivityBase software (IDBS). Percent activity values were calculated based on control wells containing no compound (100% activity) and wells containing a control compound (0% activity).

[10] = molecular target: Human Cathepsin B (Homo sapiens, UniProt P07858); experiment: Mammalian protease panel; assay type: biochemical
Experimental: as §1, §2

[11] = molecular target: HIV-1 protease (Human immunodeficiency virus type 1 group M subtype B, UniProt P04585); experiment: Mammalian protease panel; assay type: biochemical
Experimental: as §1, §2

[12] = system: SARS-CoV-2; set-up: method as in earlier work; conditions: preliminary data; read-out: unbound EC90; cited from earlier work
[13] = Metabolic stability and enzyme kinetics in liver S9 (conversion to PF-00835231); conditions: for Km at 20 min / microsomal CLint: dog
[14] = Dog pharmacokinetic study; conditions: for clearance / half-life / Vd: male, Beagle, dog, plasma, iv; for Vd: Vdss
[15] = Rat 24-h continuous intravenous infusion GLP toxicity study; assay type: in vivo, Sprague-Dawley rats; conditions: in vivo

Chain of HKU9-CoV 3CL^pro (P0C6W5 3104-3409 limits assumed): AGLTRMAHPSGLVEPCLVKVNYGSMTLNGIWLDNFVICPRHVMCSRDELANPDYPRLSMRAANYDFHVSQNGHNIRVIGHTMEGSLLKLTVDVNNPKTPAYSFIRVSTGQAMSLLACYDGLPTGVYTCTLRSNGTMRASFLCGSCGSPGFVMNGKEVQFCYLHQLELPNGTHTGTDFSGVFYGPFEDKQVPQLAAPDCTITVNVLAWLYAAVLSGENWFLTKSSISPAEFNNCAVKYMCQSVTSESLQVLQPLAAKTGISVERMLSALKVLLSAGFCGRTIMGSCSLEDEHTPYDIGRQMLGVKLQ
Chain of Human Elastase (P08246 30-247 limits assumed): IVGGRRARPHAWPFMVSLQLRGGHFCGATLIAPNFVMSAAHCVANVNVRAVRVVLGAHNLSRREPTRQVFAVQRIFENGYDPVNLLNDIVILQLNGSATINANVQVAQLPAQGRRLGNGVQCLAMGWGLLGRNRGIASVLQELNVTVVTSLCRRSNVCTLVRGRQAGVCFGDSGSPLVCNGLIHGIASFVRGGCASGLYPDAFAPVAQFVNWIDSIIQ
Chain of CYP3A4/5 (P08684 whole entry): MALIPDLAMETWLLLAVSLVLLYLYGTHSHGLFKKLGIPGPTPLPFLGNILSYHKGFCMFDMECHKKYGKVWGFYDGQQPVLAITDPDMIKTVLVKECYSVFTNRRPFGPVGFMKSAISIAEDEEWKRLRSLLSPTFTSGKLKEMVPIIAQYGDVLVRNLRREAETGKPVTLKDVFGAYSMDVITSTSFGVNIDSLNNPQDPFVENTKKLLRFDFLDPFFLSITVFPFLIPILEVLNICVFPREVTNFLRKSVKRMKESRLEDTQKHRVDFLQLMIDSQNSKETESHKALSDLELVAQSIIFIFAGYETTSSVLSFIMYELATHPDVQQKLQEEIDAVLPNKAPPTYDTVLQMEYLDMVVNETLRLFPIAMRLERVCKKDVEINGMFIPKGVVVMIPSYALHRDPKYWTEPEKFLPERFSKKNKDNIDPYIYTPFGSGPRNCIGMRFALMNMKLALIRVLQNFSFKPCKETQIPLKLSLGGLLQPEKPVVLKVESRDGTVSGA
Chain of Human Caspase 2 (P42575 170-325 limits assumed): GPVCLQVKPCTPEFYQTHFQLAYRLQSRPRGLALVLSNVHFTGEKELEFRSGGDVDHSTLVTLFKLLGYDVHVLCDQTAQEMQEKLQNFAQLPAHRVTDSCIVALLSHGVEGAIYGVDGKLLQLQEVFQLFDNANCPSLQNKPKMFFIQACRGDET
Chain of Human Caspase 2 (P42575 348-452 limits assumed): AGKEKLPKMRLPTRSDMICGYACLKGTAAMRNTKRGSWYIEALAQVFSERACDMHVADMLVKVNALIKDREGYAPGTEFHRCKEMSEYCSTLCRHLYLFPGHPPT
Chain of OC43-CoV 3CL^pro (P0C6X6 3247-3549): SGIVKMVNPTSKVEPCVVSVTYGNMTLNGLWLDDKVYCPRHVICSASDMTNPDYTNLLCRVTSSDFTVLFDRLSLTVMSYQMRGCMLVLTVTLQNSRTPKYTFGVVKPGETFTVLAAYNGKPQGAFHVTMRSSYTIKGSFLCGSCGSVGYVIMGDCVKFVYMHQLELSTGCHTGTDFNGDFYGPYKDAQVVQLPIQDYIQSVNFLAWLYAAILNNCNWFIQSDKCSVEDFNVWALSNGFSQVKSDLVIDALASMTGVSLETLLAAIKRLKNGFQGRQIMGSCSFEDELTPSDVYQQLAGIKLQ

In the case of `COc1cccc2[nH]c(C(=O)N[C@@H](CC(C)C)C(=O)N[C@@H](C[C@@H]3CCNC3=O)C(=O)CO)cc12` [PF-00835231], the IC50 [1] is reported as greater than 33 µM, the “Initial Velocity” value ([2]; [Compound F2] 1.95312 nM) is reported as 0.9878 and 0.9959 and 0.983 and the “Initial Velocity” value ([2]; [Compound F2] 3.90625 nM) is reported as 0.9913 and 0.9924 and 0.95. For the same compound, the “Initial Velocity” value ([2]; [Compound F2] 7.8125 nM) was 0.9224 and 0.9795 and 0.9137, the “Initial Velocity” value ([2]; [Compound F2] 20 nM) was 0.886 and 0.9243 and 0.93 and the “Initial Velocity” value ([2]; [Compound F2] 30 nM) was 0.8569 and 0.8538 and 0.879. For the same compound, the “Initial Velocity” value ([2]; [Compound F2] 31.25 nM) was 0.8589 and 0.8929 and 0.8492, the “Initial Velocity” value ([2]; [Compound F2] 40 nM) was 0.8139 and 0.8202 and 0.8114 and the “Initial Velocity” value ([2]; [Compound F2] 50 nM) was 0.7816 and 0.7894 and 0.7901. The “Initial Velocity” value ([2]; [Compound F2] 60 nM) was 0.7312 and 0.6789 and 0.7455, the “Initial Velocity” value ([2]; [Compound F2] 62.5 nM) was 0.7579 and 0.8162 and 0.7406 and the “Initial Velocity” value ([2]; [Compound F2] 80 nM) was 0.682 and 0.6702 and 0.6841. For the same compound, the “Initial Velocity” value ([2]; [Compound F2] 100 nM) was 0.6302 and 0.62 and 0.5903, the “Initial Velocity” value ([2]; [Compound F2] 200 nM) was 0.2879 and 0.279 and 0.2522 and the “Initial Velocity” value ([2]; [Compound F2] 1000 nM) was 0.000466 and 0.000256. The Ki ([2]; mean ± SEM) was 0.00074 ± 0.00068 µM, the Ki [3] was 108 µM and the microsomal CLint at 1 µM ([4]; liver microsomes) was 14 µL/min/mg. For the same compound, the microsomal CLint at 1 µM ([4]; pooled human liver microsomes) was 7.5 µL/min/mg, the Ki [5] was 0.00051 ± 0.00012 µM and the “fu, human liver microsomal binding” value ([6]; Microsomal protein 0.806mg/ml, individual replicates) was 0.70 and 0.77. For the same compound, the HLM microsomal binding ([6]; clearance input) was 0.75, the fraction unbound at 6 h ([6]; human liver microsomal binding, Geomean, Microsomal protein 0.806mg/ml) was 0.75 and the fraction unbound at 6 h ([6]; human liver microsomal binding, Microsomal protein 0.806mg/ml, individual replicates) was 0.84. It also gave a fraction unbound at 6 h ([6]; microsomal protein 0.806mg/ml, individual replicates n=1-4) of 0.7, a CC50 ([7]; African green monkey, CC50) greater than 100 µM and a CC50 ([7]; monkey, CC50 GeoMean (95% CI)) greater than 100 µM. The CC50 ([8]; African green monkey) was greater than 50 µM, the CC50 ([8]; monkey) was greater than 50 µM and the IC50 [9] was greater than 33 µM. For the same compound, the IC50 [10] was 6 µM and 6.1 µM, the IC50 [11] was greater than 11 µM and the EC90 [12] was less than 0.5 µM.
`COc1cccc2[nH]c(C(=O)N[C@@H](CC(C)C)C(=O)N[C@@H](C[C@@H]3CCNC3=O)C(=O)COP(=O)(O)O)cc12` [PF-07304814] showed a Vmax ([13]; Dog, best-fit, Two enzyme: MM + Unsaturable) of 213.7 pmol/min/mg, a Km at 20 min ([13]; dog liver S9, pH 7.5, KM) of 2.91 µM and a Km at 20 min ([13]; dog liver S9, pH 7.5, Km, Dog, best-fit, Two enzyme: MM + Unsaturable) of 2.91 µM. The microsomal CLint ([13]; liver S9, pH 7.5, CL, unsaturable component, best-fit) was 1.69 µL/min/mg, the microsomal CLint ([13]; liver S9, pH 7.5, CLint total, Dog, (vmax / KM) + CL) was 75.2 µL/min/mg and the microsomal CLint ([13]; liver S9, pH 7.5, CLint,app) was 75.2 µL/min/mg. For the same compound, the microsomal CLint ([13]; liver S9, pH 7.5, CLintu (unbound CLint)) was 84 µL/min/mg, the “%unchanged in urine” value ([14]; dog IV, PF-07304814 […], PF-00835231 1.0mg/kg) was less than 0.1% and the “Total Concn, Mean Data” value ([14]; dog plasma, PF-07304814 prodrug dosed […] intravenous, time 8 h, mean, BLQ=0.1ng/mL) was “BLQ”. For the same compound, the “Urine Concn” value ([14]; dog urine 4-8h, PF-07304814 prodrug dosed […] intravenous, individual dogs, BLQ=1ng/mL for urine) was “BLQ”, the clearance ([14]; CLp, dog IV (n=2, range), PF-07304814 […], PF-00835231 1.0mg/kg) was 517 mL/min/kg and the half-life ([14]; Terminal T1/2, dog IV (n=2, range), PF-07304814 […], PF-00835231 1.0mg/kg) was 30 min. For the same compound, the Vd ([14]; dog IV (n=2, range), PF-07304814 […], PF-00835231 1.0mg/kg) was 9.3 L/kg, the clearance ([14]; […], Clearance, Mean Data, PF-07304814 prodrug dosed […] intravenous, mean) was 517 mL/min/kg and the half-life ([14]; […], Half life, Mean Data, PF-07304814 prodrug dosed […] intravenous, mean) was 30.6 min. For the same compound, the Vd ([14]; […], Mean Data, PF-07304814 prodrug dosed […] intravenous, mean) was 9.3 L/kg, the NOAEL at 24 h ([15]; both sexes, Sprague-Dawley, 24 h continuous IV infusion, read-out: no observed adverse effect level (NOAEL)) was 1000 mg/kg and the toxicity findings [15] was “no test article related findings”.
